Patent US11547681B2, “N-acylethanolamide derivatives and uses thereof” (ELIEM THERAPEUTICS, INC., priority 2016, dated 2023)

Assay: in vitro
Settings: for Concentration (μM) of analyte PEA, 0 min / Concentration (μM) of analyte PEA, 10 min / Concentration (μM) of analyte PEA, 20 min / Concentration (μM) of analyte PEA, 30 min / Concentration (μM) of analyte PEA, 60 min / % Remaining of Initial (n = 1), 0 min / % Remaining of Initial (n = 1), 10 min / % Remaining of Initial (n = 1), 20 min / % Remaining of Initial (n = 1), 30 min / % Remaining of Initial (n = 1), 60 min: 1 μM; for % Remaining of Initial (n = 1), 0 min: s9, 0 h; for % Remaining of Initial (n = 1), 10 min: s9, 10 min; for % Remaining of Initial (n = 1), 20 min: s9, 20 min; for % Remaining of Initial (n = 1), 30 min: s9, 0.5 h; for % Remaining of Initial (n = 1), 60 min: s9, 1 h; for half-life at 1 μM: s9, Half-life (min)
Procedure: Reaction mixture, minus cofactors, was prepared as described below. Test article was added into the reaction mixture at a final concentration of 1 μM. […] An aliquot of the reaction mixture (without cofactor cocktail) was equilibrated in a shaking water bath at 37° C. for 3 minutes. The reaction was initiated by the addition of cofactor cocktail (see below), and the mixture was then incubated in a shaking water bath at 37° C. Aliquots (100 μL) were withdrawn 0, 10, 20, 30 and 60 minutes. Test article samples were immediately combined with 300 μL of ice-cold acetonitrile containing 1% formic acid. Control samples were immediately combined with 400 μL of ice-cold 50/50 acetonitrile (ACN)/dH2O containing 0.1% formic acid and internal standard to terminate the reaction. Samples were then mixed and centrifuged to precipitate proteins. Calibration standards were prepared in matched matrix. Samples and standards were assayed by LC-MS/MS using electrospray ionization for both the dosed prodrug and the expected drug (PEA). Analytical conditions are outlined in Appendix 8-1. Test article concentration at each time point was compared to the test article concentration at time 0 to determine the percent remaining at each time point. Half-lives were calculated using GraphPad software, fitting to a single-phase exponential decay equation.
Reaction mixture, minus cofactors, was prepared as described below. Test article was added into the reaction mixture at a final concentration of 1 μM. […] An aliquot of the reaction mixture (without cofactor cocktail) was equilibrated in a shaking water bath at 37° C. for 5 minutes. Reaction was initiated by the addition of cofactor cocktail (see below), and mixture was then incubated in a shaking water bath at 37° C. Aliquots (100 μL) were withdrawn at 0, 10, 20, 30, and 60 minutes. Test article samples were immediately combined with 300 μL of ice-cold acetonitrile containing 1% formic acid. Control samples were immediately combined with 400 μL of ice-cold 50/50 acetonitrile (ACN)/dH2O containing 0.1% formic acid and internal standard to terminate the reaction. Samples were then mixed and centrifuged to precipitate proteins. Calibration standards were prepared in matched matrix. Samples and standards were assayed by LC-MS/MS using electrospray ionization for both dosed prodrug and expected drug (PEA). Analytical conditions are outlined in Appendix 10-1. Test article concentration at each time point was compared to test article concentration at time 0 to determine the percent remaining at each time point. Half-lives were calculated using GraphPad software, fitting to a single-phase exponential decay equation.
The reaction mixture, minus cofactors, was prepared as described below. Test article was added into the reaction mixture at a final concentration of 1 μM. […] An aliquot of the reaction mixture (without cofactor cocktail) was equilibrated in a shaking water bath at 37° C. for 3 minutes. Reaction was initiated by the addition of cofactor cocktail (see below), and the mixture was then incubated in a shaking water bath at 37° C. Aliquots (100 μL) were withdrawn at 0, 10, 20, 30, and 60 minutes. Test article samples were immediately combined with 300 μL of ice-cold acetonitrile containing 1% formic acid. Control samples were immediately combined with 400 μL of ice-cold 50/50 acetonitrile (ACN)/dH2O containing 0.1% formic acid and internal standard to terminate the reaction. Samples were then mixed and centrifuged to precipitate proteins. Calibration standards were prepared in matched matrix. Samples and standards were assayed by LC-MS/MS using electrospray ionization for both dosed prodrug and expected drug (PEA). Analytical conditions are outlined in Appendix 13-1. Test article concentration at each time point was compared to the test article concentration at time 0 to determine the percent remaining at each time point.

CCCCCCCCCCCCCCCC(=O)NCCOC(=O)CCC(=O)OC[C@H]1O[C@@](CO)(O[C@H]2O[C@H](CO)[C@@H](O)[C@H](O)[C@H]2O)[C@@H](O)[C@@H]1O [Compound I-7]
Concentration (μM) of analyte PEA, 0 min (both, human): 0.20 µM | Concentration (μM) of analyte PEA, 10 min (both, human): 0.32 µM | Concentration (μM) of analyte PEA, 20 min (both, human): 0.17 µM | Concentration (μM) of analyte PEA, 30 min (both, human): 0.13 µM | Concentration (μM) of analyte PEA, 60 min (both, human): 0.042 µM | % Remaining of Initial (n = 1), 0 min (both, human): 100% | % Remaining of Initial (n = 1), 10 min (both, human): 1.9% | % Remaining of Initial (n = 1), 20 min (both, human): <1.0% | % Remaining of Initial (n = 1), 30 min (both, human): <1.0% | % Remaining of Initial (n = 1), 60 min (both, human): <1.0% | Concentration (μM) of analyte PEA, 0 min (male, Beagle, dog): 0.21 µM | Concentration (μM) of analyte PEA, 10 min (male, Beagle, dog): 0.16 µM | Concentration (μM) of analyte PEA, 20 min (male, Beagle, dog): 0.15 µM | Concentration (μM) of analyte PEA, 30 min (male, Beagle, dog): 0.12 µM | Concentration (μM) of analyte PEA, 60 min (male, Beagle, dog): 0.049 µM | % Remaining of Initial (n = 1), 0 min (male, Beagle, dog): 100% | % Remaining of Initial (n = 1), 10 min (male, Beagle, dog): <1.0% | % Remaining of Initial (n = 1), 20 min (male, Beagle, dog): <1.0% | % Remaining of Initial (n = 1), 30 min (male, Beagle, dog): <1.0% | % Remaining of Initial (n = 1), 60 min (male, Beagle, dog): <1.0% | half-life at 1 μM (male, Beagle, dog): < 1 min | Concentration (μM) of analyte PEA, 0 min (male, CD-1, mouse): 0.22 µM | Concentration (μM) of analyte PEA, 10 min (male, CD-1, mouse): 0.22 µM | Concentration (μM) of analyte PEA, 20 min (male, CD-1, mouse): 0.14 µM | Concentration (μM) of analyte PEA, 30 min (male, CD-1, mouse): 0.084 µM | Concentration (μM) of analyte PEA, 60 min (male, CD-1, mouse): 0.020 µM | % Remaining of Initial (n = 1), 0 min (male, CD-1, mouse): 100% | % Remaining of Initial (n = 1), 10 min (male, CD-1, mouse): 1.6% | % Remaining of Initial (n = 1), 20 min (male, CD-1, mouse): <1.0% | % Remaining of Initial (n = 1), 30 min (male, CD-1, mouse): <1.0% | % Remaining of Initial (n = 1), 60 min (male, CD-1, mouse): <1.0% | Concentration (μM) of analyte PEA, 0 min (male, Sprague-Dawley, rat): 0.045 µM | Concentration (μM) of analyte PEA, 10 min (male, Sprague-Dawley, rat): 0.15 µM | Concentration (μM) of analyte PEA, 20 min (male, Sprague-Dawley, rat): 0.16 µM | Concentration (μM) of analyte PEA, 30 min (male, Sprague-Dawley, rat): 0.12 µM | Concentration (μM) of analyte PEA, 60 min (male, Sprague-Dawley, rat): 0.039 µM | % Remaining of Initial (n = 1), 0 min (male, Sprague-Dawley, rat): 100% | % Remaining of Initial (n = 1), 10 min (male, Sprague-Dawley, rat): 43% | % Remaining of Initial (n = 1), 20 min (male, Sprague-Dawley, rat): 22% | % Remaining of Initial (n = 1), 30 min (male, Sprague-Dawley, rat): 11% | % Remaining of Initial (n = 1), 60 min (male, Sprague-Dawley, rat): 1.4%

CCCCCCCCCCCCCCCC(=O)NCCOC(=O)CCC [Compound I-2]
Concentration (μM) of analyte PEA, 0 min (both, human): 0.20 µM | Concentration (μM) of analyte PEA, 10 min (both, human): 0.23 µM | Concentration (μM) of analyte PEA, 20 min (both, human): 0.18 µM | Concentration (μM) of analyte PEA, 30 min (both, human): 0.096 µM | Concentration (μM) of analyte PEA, 60 min (both, human): 0.033 µM | % Remaining of Initial (n = 1), 0 min (both, human): 100% | % Remaining of Initial (n = 1), 10 min (both, human): 6.0% | % Remaining of Initial (n = 1), 20 min (both, human): 1.3% | % Remaining of Initial (n = 1), 30 min (both, human): <1.0% | % Remaining of Initial (n = 1), 60 min (both, human): <1.0% | Concentration (μM) of analyte PEA, 0 min (male, Beagle, dog): 0.23 µM | Concentration (μM) of analyte PEA, 10 min (male, Beagle, dog): 0.38 µM | Concentration (μM) of analyte PEA, 20 min (male, Beagle, dog): 0.35 µM | Concentration (μM) of analyte PEA, 30 min (male, Beagle, dog): 0.21 µM | Concentration (μM) of analyte PEA, 60 min (male, Beagle, dog): 0.11 µM | % Remaining of Initial (n = 1), 0 min (male, Beagle, dog): 100% | % Remaining of Initial (n = 1), 10 min (male, Beagle, dog): 5.1% | % Remaining of Initial (n = 1), 20 min (male, Beagle, dog): 2.0% | % Remaining of Initial (n = 1), 30 min (male, Beagle, dog): <1.0% | % Remaining of Initial (n = 1), 60 min (male, Beagle, dog): <1.0% | Concentration (μM) of analyte PEA, 0 min (male, CD-1, mouse): 0.51 µM | Concentration (μM) of analyte PEA, 10 min (male, CD-1, mouse): 0.26 µM | Concentration (μM) of analyte PEA, 20 min (male, CD-1, mouse): 0.19 µM | Concentration (μM) of analyte PEA, 30 min (male, CD-1, mouse): 0.12 µM | Concentration (μM) of analyte PEA, 60 min (male, CD-1, mouse): 0.022 µM | % Remaining of Initial (n = 1), 0 min (male, CD-1, mouse): 100% | % Remaining of Initial (n = 1), 10 min (male, CD-1, mouse): <1.0% | % Remaining of Initial (n = 1), 20 min (male, CD-1, mouse): <1.0% | % Remaining of Initial (n = 1), 30 min (male, CD-1, mouse): <1.0% | % Remaining of Initial (n = 1), 60 min (male, CD-1, mouse): <1.0% | half-life at 1 μM (male, CD-1, mouse): < 1 min | Concentration (μM) of analyte PEA, 0 min (male, Sprague-Dawley, rat): 0.50 µM | Concentration (μM) of analyte PEA, 10 min (male, Sprague-Dawley, rat): 0.31 µM | Concentration (μM) of analyte PEA, 20 min (male, Sprague-Dawley, rat): 0.17 µM | Concentration (μM) of analyte PEA, 30 min (male, Sprague-Dawley, rat): 0.11 µM | Concentration (μM) of analyte PEA, 60 min (male, Sprague-Dawley, rat): 0.023 µM | % Remaining of Initial (n = 1), 0 min (male, Sprague-Dawley, rat): 100% | % Remaining of Initial (n = 1), 10 min (male, Sprague-Dawley, rat): <1.0% | % Remaining of Initial (n = 1), 20 min (male, Sprague-Dawley, rat): <1.0% | % Remaining of Initial (n = 1), 30 min (male, Sprague-Dawley, rat): <1.0% | % Remaining of Initial (n = 1), 60 min (male, Sprague-Dawley, rat): <1.0% | half-life at 1 μM (male, Sprague-Dawley, rat): < 1 min
